Values of other authors as cited in patent US20060211763A1, “Treatment with Statin and Omega-3 Fatty Acids and a Combination Product Thereof” (priority 2005, published 2006).
One block for each molecule: values may come before it.

Tests used:
[1] = system: patients with hyperlipidemia; details: 900 or 1800 mg/day EPA ethyl ester for 3 months added to 5-20 mg/day pravastatin or 5 mg/day simvastatin; vs baseline monotherapy
[2] = in vivo
[3] = system: patients with hyperlipemia; details: 10 mg/day atorvastatin 5 weeks (vs baseline)
[4] = system: patients with hypercholesterolemia; details: 40 mg/day lovastatin 6 weeks
[5] = then plus 2 g/day Omacor 5 weeks (vs atorvastatin alone; insignificant)
[6] = then combination with 6 g/day Omacor 6 weeks

SMILES: CC/C=C\C/C=C\C/C=C\C/C=C\C/C=C\CCCC(=O)OCC [EPA ethyl ester]
HDL-C levels [1]: significantly increased
Triglyceride levels [1]: significantly reduced

SMILES: CC(C)c1c(C(=O)Nc2ccccc2)c(-c2ccccc2)c(-c2ccc(F)cc2)n1CC[C@@H](O)C[C@@H](O)CC(=O)O [atorvastatin]
HDL-C levels ([3]; then plus 2 g/day Omacor 5 weeks (vs atorvastatin alone)): significantly increased
LDL-C levels [3, 5]: significantly decreased
Triglyceride levels [3, 5]: significantly decreased

Further lines, with some results ahead:

Bioavailability [2]: approximately 24%
SMILES: CC(C)n1c(/C=C/C(O)CC(O)CC(=O)O)c(-c2ccc(F)cc2)c2ccccc21 (stereo not drawn) [fluvastatin]

Effect of food on absorption [2]: best absorbed without food
SMILES: CC[C@H](C)C(=O)O[C@H]1C[C@H](O)C=C2C=C[C@H](C)[C@H](CC[C@@H](O)C[C@@H](O)CC(=O)O)[C@H]21 [pravastatin]

Rate of absorption [2]: about 30%
Degradation in alkaline environment: converted to the acid form
SMILES: CC[C@H](C)C(=O)O[C@H]1C[C@@H](C)C=C2C=C[C@H](C)[C@H](CC[C@@H]3C[C@@H](O)CC(=O)O3)[C@H]21 [lovastatin]
HDL-C levels [4]: significant increases
LDL-C levels [4, 6]: significant decreases
Triglyceride levels [4, 6]: significant decreases
